Test results published in US7258878B2, “Anti-microbial composition and methods of use thereof” (Kimberly-Clark Worldwide, Inc., priority 2004, dated 2007).
Read-outs that look alike come from different tables or passages of the source.

Key:
[1] = test system: S. aureus (ATCC 6538; Gram positive bacteria); assay: Zone of inhibition test against S. aureus; type: cell-based, Staphylococcus aureus; settings: for zone of inhibition at 1000 µg/mL / zone of inhibition at 10000 µg/mL: Staphylococcus aureus
Experimental: (§1) Natural compounds were evaluated for anti-microbial activity using the zone of inhibition test (ASTM E214901). The activity against five types of microorganisms: Staphylococcus aureus, Pseudomonas aeruginosa, Escherichia coli, Aspergillis niger and Candida albicans, was evaluated. These microorganisms represent gram positive and gram negative bacteria, fungi and yeast.
(§2) The compounds were tested for activity against E. coli (ATCC 8739; Gram negative bacteria), S. aureus (ATCC 6538; Gram positive bacteria), P. aeruginosa (ATCC 9027; Gram negative bacteria), C. albicans (ATCC 10231; yeast) and A niger (ATCC 16404; fungus) at 1 and 10 mg/ml concentrations by using the zone of inhibition method along with triclosan as a positive control.
(§3) The following natural compounds were tested for their anti-fungal properties: eucalyptol, cineole (SIGMA C-8144); gallic acid, 3,4,5-trihydroxybenzoic acid (SIGMA G-7384); methyl jasmonate, 95% (Aldrich 39270-7); and naringin: >95%, made from citrus fruit (SIGMA N-1376). A DMSO/water (75/25 by volume) mixture was used as the carrying solvent for each compound tested. The compounds were tested at 1 and 10 mg/ml concentrations by using the zone of inhibition method along with triclosan as a positive control.
(§4) Microorganism cultures of 10^5 cfu (colony forming units)/ml in a 1×PBS (phosphate buffered saline) solution were used. One ml of the solution was plated on a trypticase soy agar plate (TSA) and allowed to grow at 35° C. for four hours. 4 mm diameter wells were then punched in each TSA plate and 100 μl of each compound being tested was added to these wells. The plates were incubated overnight at 35° C. Lawn clearing was measured the next day as an indicator of antimicrobial activity.

[2] = test system: P. aeruginosa (ATCC 9027; Gram negative bacteria); assay: Zone of inhibition test against P. aeruginosa; type: cell-based, Pseudomonas aeruginosa; settings: for zone of inhibition at 1000 µg/mL / zone of inhibition at 10000 µg/mL: Pseudomonas aeruginosa
Experimental: as §1, §2, §3, §4

[3] = test system: E. coli (ATCC 8739; Gram negative bacteria); assay: Zone of inhibition test against E. coli; type: cell-based, Escherichia coli; settings: for zone of inhibition at 1000 µg/mL / zone of inhibition at 10000 µg/mL: Escherichia coli
Experimental: as §1, §2, §3, §4

[4] = test system: C. albicans (ATCC 10231; yeast); assay: Zone of inhibition test against C. albicans; type: cell-based, Candida albicans; settings: for zone of inhibition at 1000 µg/mL / zone of inhibition at 10000 µg/mL: Candida albicans; for Selective inhibition of C. albicans (conclusion in words): zone of inhibition, five organisms tested, 1 and 10 mg/ml
Experimental: as §1, §2, §3, §4

[5] = test system: A niger (ATCC 16404; fungus); assay: Zone of inhibition test against A. niger; type: cell-based, Aspergillis niger; settings: for zone of inhibition at 1000 µg/mL / zone of inhibition at 10000 µg/mL: Aspergillus niger
Experimental: as §1, §2, §3, §4

[6] = test system: Lactobacillus acidophilus (ATCC 11975); assay: Zone of inhibition test against Lactobacillus acidophilus; type: cell-based; settings: sample size 100 μl; for Zone of Inhibition: duplicate
Experimental: as §4
Five of these compounds were tested against Lactobacillus acidophilus (ATCC 11975). None of the compounds tested had antimicrobial activity against lactobacilli, a microorganism normally found in humans, specifically in the vagina. Due to their ability to derive lactic acid from glucose, these bacteria create an acidic environment that inhibits growth of many bacterial species that can lead to urogenital infections. Lactobacillus is generally harmless to humans, rarely inciting harmful infections or diseases. Thus, these compounds can be effectively utilized to develop products to address infections arising from Candida, Aspergillus and related species without destroying the normal balance of microbial species found in human gastrointestinal tract.
Gallic acid, 3,4,5-trihydroxybenzoic acid (SIGMA G-7384); eucalyptol, cineole (SIGMA C-8144); naringin: >95%, made from citrus fruit (SIGMA N-1376), and methyl jasmonate, 95% (Aldrich 39270-7) were tested in two concentrations (1 and 10 mg/ml) in DMSO:water (75:25) along with positive control (chlorhexidine 5 mg/ml in 75:25 DMSO:water) and a negative control (75:25 DMSO:water). All tests were conducted in duplicate in a zone of inhibition study (as described in Example 1).

[7] = ATCC6538, concentration 1 mg/ml, 100 μl per well, DMSO/water 75/25, read-out: Zone of inhibition S. aureus
[8] = ATCC6538, concentration 10 mg/ml, 100 μl per well, DMSO/water 75/25
[9] = ATCC9027, concentration 1 mg/ml, 100 μl per well, DMSO/water 75/25, read-out: Zone of inhibition P. aeruginosa
[10] = ATCC9027, concentration 10 mg/ml, 100 μl per well, DMSO/water 75/25
[11] = ATCC8739, concentration 1 mg/ml, 100 μl per well, DMSO/water 75/25, read-out: Zone of inhibition E. coli
[12] = ATCC8739, concentration 10 mg/ml, 100 μl per well, DMSO/water 75/25
[13] = ATCC10231, concentration 1 mg/ml, 100 μl per well, DMSO/water 75/25, read-out: Zone of inhibition C. albicans
[14] = ATCC10231, concentration 10 mg/ml, 100 μl per well, DMSO/water 75/25
[15] = ATCC16404, concentration 1 mg/ml, 100 μl per well, DMSO/water 75/25, read-out: Zone of inhibition A. niger
[16] = ATCC16404, concentration 10 mg/ml, 100 μl per well, DMSO/water 75/25
[17] = 1 mg/ml in DMSO:water 75:25, inoculum 5.8 × 10^5 CFU/ml
[18] = 10 mg/ml in DMSO:water 75:25, inoculum 5.8 × 10^5 CFU/ml
[19] = concentration 1 mg/ml, 100 μl per well, DMSO/water 75/25
[20] = concentration 10 mg/ml, 100 μl per well, DMSO/water 75/25

SMILES	zone of inhibition at 1000 µg/mL [1, 7] [mm]	zone of inhibition at 10000 µg/mL [1, 8] [mm]	zone of inhibition at 1000 µg/mL [2, 9] [mm]	zone of inhibition at 10000 µg/mL [2, 10] [mm]	zone of inhibition at 1000 µg/mL [3, 11] [mm]	zone of inhibition at 10000 µg/mL [3, 12] [mm]	zone of inhibition at 1000 µg/mL [4, 13] [mm]	zone of inhibition at 10000 µg/mL [4, 14] [mm]	Selective inhibition of C. albicans (conclusion in words) [4]	zone of inhibition at 1000 µg/mL [5, 15] [mm]	zone of inhibition at 10000 µg/mL [5, 16] [mm]	Zone of Inhibition [6, 17]	Zone of Inhibition [6, 18]	Zone of inhibition S. aureus [1, 19] [mm]	Zone of inhibition S. aureus [1, 20] [mm]	Zone of inhibition P. aeruginosa [2, 19] [mm]	Zone of inhibition P. aeruginosa [2, 20] [mm]	Zone of inhibition E. coli [3, 19] [mm]	Zone of inhibition E. coli [3, 20] [mm]	Zone of inhibition C. albicans [4, 19] [mm]	further results
CC12CCC(CC1)C(C)(C)O2 [Eucalyptol, 1,3,3-Trimethyl-2-oxabicyclo[2,2,2]-octane]	0	0	0	0	0	0	3	3	selective inhibitors of C. albicans with no effect on the other four organisms tested	0	0	None	None	–	–	–	–	–	–	–	–
O=C(O)c1cc(O)c(O)c(O)c1 [Gallic acid, 3,4,5-trihydroxybenzoic acid]	0	0	0	0	0	0	5	4	selective inhibitors of C. albicans with no effect on the other four organisms tested	0	0	None	None	–	–	–	–	–	–	–	–
CC/C=C\CC1C(=O)CCC1CC(=O)OC (centres unmarked) [Methyl jasmonate, methyl jasmonate]	–	–	–	–	–	–	–	–	selectively inhibit both C. albicans and A. niger	–	–	None	None	0	2	0	0	0	0	0	Zone of inhibition C. albicans [4, 20]: 7.5 mm; Zone of inhibition A. niger [5, 19]: 0 mm; Zone of inhibition A. niger [5, 20]: 5 mm; Selective inhibition of A. niger (conclusion in words) ([5]; zone of inhibition, five organisms tested, 1 and 10 mg/ml): selectively inhibit both C. albicans and A. niger
C[C@@H]1O[C@@H](O[C@H]2[C@H](Oc3cc(O)c4c(c3)OC(c3ccc(O)cc3)CC4=O)O[C@H](CO)[C@@H](O)[C@@H]2O)[C@H](O)[C@H](O)[C@H]1O (stereo partly drawn) [Naringin, 7-[[2-O-(6-Deoxy-α-L-mannopyrano-syl)-β-D-glucopyranosyl]oxy]-2,3-dihydro-5-hydroxy-2-(4-hydroxyphenyl)-4H-1-benzopyran-4-one]	–	–	–	–	–	–	–	–	selective inhibitors of C. albicans with no effect on the other four organisms tested	–	–	None	None	0	0	0	0	0	0	3	Zone of inhibition C. albicans [4, 20]: 3.5 mm; Zone of inhibition A. niger [5, 19]: 0 mm; Zone of inhibition A. niger [5, 20]: 0 mm
[H]/N=C(\N/C(=N/[H])NCCCCCCNC(=N)NC(=N)Nc1ccc(Cl)cc1)Nc1ccc(Cl)cc1 [Positive control, chlorhexidine, reference compound]	–	–	–	–	–	–	–	–	–	–	–	–	–	–	–	–	–	–	–	–	zone of inhibition at 5000 µg/mL ([6]; Lactobacillus acidophilus, ATCC11975, positive control, chlorhexidine 5 mg/ml in 75:25 DMSO:water, inoculum 5.8 × 10^5 CFU/ml): 6 mm
Oc1cc(Cl)ccc1Oc1ccc(Cl)cc1Cl [Triclosan, triclosan, reference compound]	–	–	–	–	–	–	–	–	–	–	–	–	–	–	–	–	–	–	–	–	zone of inhibition at 1000 µg/mL ([1]; ATCC6538, read-out: Zone of inhibition S. aureus): 10 mm; zone of inhibition at 1000 µg/mL ([2]; ATCC9027, read-out: Zone of inhibition P. aeruginosa): 0 mm; zone of inhibition at 1000 µg/mL ([3]; ATCC8739, read-out: Zone of inhibition E. coli): 11 mm; zone of inhibition at 1000 µg/mL ([4]; ATCC10231, read-out: Zone of inhibition C. albicans): 8.5 mm; zone of inhibition at 1000 µg/mL ([5]; ATCC16404, read-out: Zone of inhibition A. niger): 10 mm
